Measurements reported in US11442072B2, “Method for measuring LDL aggregation” (Jenny and Antti Wihuri Foundation, priority 2018, dated 2022).

B1: bcSMase: SMase from Bacillus cereus (Sigma-Aldrich) (protein, UniProt P09599 28-333, looked up)
Sphingomyelinase C: DTSTDQNNTLKVMTHNVYMLSTNLYPNWGQSQRADLIGAADYIKNQDVVILNEVFDNSASDRLLGNLKKEYPNQTAVLGRSNGNEWDKTLGSYSSSTPEDGGVAIVSKWPIVEKIQYVFAKGCGPDNLSNKGFVYTKIKKNDRFVHVIGTHLQAEDSMCGKTSPASVRTNQLKEIQDFIKNKNIPNDEYVLFGGDMNVNKINAENNSDSEYASMFKTLHASIPSYTGHTATWDATTNSIAKYNFPDSPAEYLDYIIASKDHANPSFIENKVLQPKSPQWTVTSWLKKYTYDDYSDHYPVAATISMK

Legend:
LDL particles = target: T1, LDL particles (Homo sapiens, UniProt P04114); assay: Ex vivo enrichment of LDL with phospholipid vesicles, then hrSMase-induced aggregation (DLS); format: biochemical; details: LDL from four healthy volunteers, enriched with 1 mM phospholipid vesicles
T1 construct: from tissue; host or cells: human blood plasma (LDL fraction d=1.019-1.063 g/ml, ultracentrifugation)
Method: In the standard assay, LDL isolated from human plasma was extensively dialyzed against 20 mM MES buffer, pH 5.5, containing 150 mM NaCl and 50 μM ZnCl2 and its apoB-100 concentration was determined by ELISA (Mabtech). The sample was diluted with the same buffer to give a final concentration of 0.2 mg of apoB-100/ml and 75 μg/ml of hrSMase was added to LDL. The size of LDL was determined immediately and once every hour for up to 6-hours. An aliquot was taken at the same time points for phosphorylcholine measurement. The degree of SM hydrolysis was determined by measuring the amount of phosphorylcholine from the samples with Amplex Red reagent (Invitrogen).
To exchange LDL surface phospholipids, LDL (2 mg/ml) was incubated with phospholipid vesicles (1 mM phosphatidylcholine 18:1/16:0 (1-palmityl-2-oleyl-sn-glycero-3-phosphocholine), lysophosphatidylcholine 16:0 (1-Palmitoyl-2-Hydroxy-sn-Glycero-3-Phosphocoline) or sphingomyelin 16:0 (N-Palmitoyl-D-erythro-sphingosylphosphorylcholine) each from Avanti Polar Lipids) overnight at 37° C. in buffer A (5 mM Tris, 150 mM NaCl, 1 mM EDTA, pH 7.4). The vesicles had been prepared by sonicating 10 mM lipid solutions using a Branson Sonifier 250 sonicator (6 times for 5 minutes) in buffer A. Vesicles were removed with sequential ultracentrifugation (d<1.019 g/ml KBr) repeated twice. […]

apoB-100 = target: T2, apoB-100 (Homo sapiens, UniProt P04114); assay: Circular dichroism of phospholipid-enriched LDL after SMase treatment; format: biochemical; details: lipid-enriched LDL, SMase 30 min
T2 construct: from tissue; host or cells: human blood plasma (LDL fraction d=1.019-1.063 g/ml, ultracentrifugation)
Method: Samples of control and SM-, PC- and LPC-enriched LDL particles (1 mg/ml) were treated with SMase for 30-min and lipolysis was stopped by 10 mM EDTA. The LDL particles (50 μg/ml) were analyzed by CD as described previously (11,12).

LDL = LDL aggregation induced by oxidation, proteolysis or lipolysis, followed by DLS; format: biochemical, human; details: LDL 0.5 mg/ml from four donors; hrSMase at pH 5.5, other agents at pH 7.4
Method: Firstly, inter-individual variability in LDL aggregation using agents that have been reported to cause LDL aggregation was tested. LDL aggregation was induced at LDL concentration of 0.5 mg/ml by oxidation (incubation with 5 μM CuSO4), by proteolysis (incubation with 0.1 mg/ml α-chymotrypsin from bovine pancreas (Sigma-Aldrich)), or by lipolysis (incubation with 50 mU/ml phospholipase A2 (PLA2) from bee venom (Sigma-Aldrich)), with 200 mU/ml SMase from Bacillus cereus (bcSMase, Sigma-Aldrich)), or with 75 μg/ml hrSMase (a kind gift from Genzyme or produced in house). The incubation buffer was 20 mM Tris-HCl, pH 7.4, containing 150 mM NaCl and 2 mM CaCl2 and 2 mM MgCl2, except in the case of hrSMase, where the incubation buffer was 20 mM MES, pH 5.5, containing 150 mM NaCl and 50 μM ZnCl2. LDL size was determined at the beginning of the incubation and aggregate size was determined at the indicated time points by dynamic light scattering (DLS) (Zetasizer Nano, Malvern Instruments, Malvern Works, UK or Wyatt DynaPro Plate Reader 11, Wyatt Technology, California, USA).

T1 sequence (P04114 28-4563): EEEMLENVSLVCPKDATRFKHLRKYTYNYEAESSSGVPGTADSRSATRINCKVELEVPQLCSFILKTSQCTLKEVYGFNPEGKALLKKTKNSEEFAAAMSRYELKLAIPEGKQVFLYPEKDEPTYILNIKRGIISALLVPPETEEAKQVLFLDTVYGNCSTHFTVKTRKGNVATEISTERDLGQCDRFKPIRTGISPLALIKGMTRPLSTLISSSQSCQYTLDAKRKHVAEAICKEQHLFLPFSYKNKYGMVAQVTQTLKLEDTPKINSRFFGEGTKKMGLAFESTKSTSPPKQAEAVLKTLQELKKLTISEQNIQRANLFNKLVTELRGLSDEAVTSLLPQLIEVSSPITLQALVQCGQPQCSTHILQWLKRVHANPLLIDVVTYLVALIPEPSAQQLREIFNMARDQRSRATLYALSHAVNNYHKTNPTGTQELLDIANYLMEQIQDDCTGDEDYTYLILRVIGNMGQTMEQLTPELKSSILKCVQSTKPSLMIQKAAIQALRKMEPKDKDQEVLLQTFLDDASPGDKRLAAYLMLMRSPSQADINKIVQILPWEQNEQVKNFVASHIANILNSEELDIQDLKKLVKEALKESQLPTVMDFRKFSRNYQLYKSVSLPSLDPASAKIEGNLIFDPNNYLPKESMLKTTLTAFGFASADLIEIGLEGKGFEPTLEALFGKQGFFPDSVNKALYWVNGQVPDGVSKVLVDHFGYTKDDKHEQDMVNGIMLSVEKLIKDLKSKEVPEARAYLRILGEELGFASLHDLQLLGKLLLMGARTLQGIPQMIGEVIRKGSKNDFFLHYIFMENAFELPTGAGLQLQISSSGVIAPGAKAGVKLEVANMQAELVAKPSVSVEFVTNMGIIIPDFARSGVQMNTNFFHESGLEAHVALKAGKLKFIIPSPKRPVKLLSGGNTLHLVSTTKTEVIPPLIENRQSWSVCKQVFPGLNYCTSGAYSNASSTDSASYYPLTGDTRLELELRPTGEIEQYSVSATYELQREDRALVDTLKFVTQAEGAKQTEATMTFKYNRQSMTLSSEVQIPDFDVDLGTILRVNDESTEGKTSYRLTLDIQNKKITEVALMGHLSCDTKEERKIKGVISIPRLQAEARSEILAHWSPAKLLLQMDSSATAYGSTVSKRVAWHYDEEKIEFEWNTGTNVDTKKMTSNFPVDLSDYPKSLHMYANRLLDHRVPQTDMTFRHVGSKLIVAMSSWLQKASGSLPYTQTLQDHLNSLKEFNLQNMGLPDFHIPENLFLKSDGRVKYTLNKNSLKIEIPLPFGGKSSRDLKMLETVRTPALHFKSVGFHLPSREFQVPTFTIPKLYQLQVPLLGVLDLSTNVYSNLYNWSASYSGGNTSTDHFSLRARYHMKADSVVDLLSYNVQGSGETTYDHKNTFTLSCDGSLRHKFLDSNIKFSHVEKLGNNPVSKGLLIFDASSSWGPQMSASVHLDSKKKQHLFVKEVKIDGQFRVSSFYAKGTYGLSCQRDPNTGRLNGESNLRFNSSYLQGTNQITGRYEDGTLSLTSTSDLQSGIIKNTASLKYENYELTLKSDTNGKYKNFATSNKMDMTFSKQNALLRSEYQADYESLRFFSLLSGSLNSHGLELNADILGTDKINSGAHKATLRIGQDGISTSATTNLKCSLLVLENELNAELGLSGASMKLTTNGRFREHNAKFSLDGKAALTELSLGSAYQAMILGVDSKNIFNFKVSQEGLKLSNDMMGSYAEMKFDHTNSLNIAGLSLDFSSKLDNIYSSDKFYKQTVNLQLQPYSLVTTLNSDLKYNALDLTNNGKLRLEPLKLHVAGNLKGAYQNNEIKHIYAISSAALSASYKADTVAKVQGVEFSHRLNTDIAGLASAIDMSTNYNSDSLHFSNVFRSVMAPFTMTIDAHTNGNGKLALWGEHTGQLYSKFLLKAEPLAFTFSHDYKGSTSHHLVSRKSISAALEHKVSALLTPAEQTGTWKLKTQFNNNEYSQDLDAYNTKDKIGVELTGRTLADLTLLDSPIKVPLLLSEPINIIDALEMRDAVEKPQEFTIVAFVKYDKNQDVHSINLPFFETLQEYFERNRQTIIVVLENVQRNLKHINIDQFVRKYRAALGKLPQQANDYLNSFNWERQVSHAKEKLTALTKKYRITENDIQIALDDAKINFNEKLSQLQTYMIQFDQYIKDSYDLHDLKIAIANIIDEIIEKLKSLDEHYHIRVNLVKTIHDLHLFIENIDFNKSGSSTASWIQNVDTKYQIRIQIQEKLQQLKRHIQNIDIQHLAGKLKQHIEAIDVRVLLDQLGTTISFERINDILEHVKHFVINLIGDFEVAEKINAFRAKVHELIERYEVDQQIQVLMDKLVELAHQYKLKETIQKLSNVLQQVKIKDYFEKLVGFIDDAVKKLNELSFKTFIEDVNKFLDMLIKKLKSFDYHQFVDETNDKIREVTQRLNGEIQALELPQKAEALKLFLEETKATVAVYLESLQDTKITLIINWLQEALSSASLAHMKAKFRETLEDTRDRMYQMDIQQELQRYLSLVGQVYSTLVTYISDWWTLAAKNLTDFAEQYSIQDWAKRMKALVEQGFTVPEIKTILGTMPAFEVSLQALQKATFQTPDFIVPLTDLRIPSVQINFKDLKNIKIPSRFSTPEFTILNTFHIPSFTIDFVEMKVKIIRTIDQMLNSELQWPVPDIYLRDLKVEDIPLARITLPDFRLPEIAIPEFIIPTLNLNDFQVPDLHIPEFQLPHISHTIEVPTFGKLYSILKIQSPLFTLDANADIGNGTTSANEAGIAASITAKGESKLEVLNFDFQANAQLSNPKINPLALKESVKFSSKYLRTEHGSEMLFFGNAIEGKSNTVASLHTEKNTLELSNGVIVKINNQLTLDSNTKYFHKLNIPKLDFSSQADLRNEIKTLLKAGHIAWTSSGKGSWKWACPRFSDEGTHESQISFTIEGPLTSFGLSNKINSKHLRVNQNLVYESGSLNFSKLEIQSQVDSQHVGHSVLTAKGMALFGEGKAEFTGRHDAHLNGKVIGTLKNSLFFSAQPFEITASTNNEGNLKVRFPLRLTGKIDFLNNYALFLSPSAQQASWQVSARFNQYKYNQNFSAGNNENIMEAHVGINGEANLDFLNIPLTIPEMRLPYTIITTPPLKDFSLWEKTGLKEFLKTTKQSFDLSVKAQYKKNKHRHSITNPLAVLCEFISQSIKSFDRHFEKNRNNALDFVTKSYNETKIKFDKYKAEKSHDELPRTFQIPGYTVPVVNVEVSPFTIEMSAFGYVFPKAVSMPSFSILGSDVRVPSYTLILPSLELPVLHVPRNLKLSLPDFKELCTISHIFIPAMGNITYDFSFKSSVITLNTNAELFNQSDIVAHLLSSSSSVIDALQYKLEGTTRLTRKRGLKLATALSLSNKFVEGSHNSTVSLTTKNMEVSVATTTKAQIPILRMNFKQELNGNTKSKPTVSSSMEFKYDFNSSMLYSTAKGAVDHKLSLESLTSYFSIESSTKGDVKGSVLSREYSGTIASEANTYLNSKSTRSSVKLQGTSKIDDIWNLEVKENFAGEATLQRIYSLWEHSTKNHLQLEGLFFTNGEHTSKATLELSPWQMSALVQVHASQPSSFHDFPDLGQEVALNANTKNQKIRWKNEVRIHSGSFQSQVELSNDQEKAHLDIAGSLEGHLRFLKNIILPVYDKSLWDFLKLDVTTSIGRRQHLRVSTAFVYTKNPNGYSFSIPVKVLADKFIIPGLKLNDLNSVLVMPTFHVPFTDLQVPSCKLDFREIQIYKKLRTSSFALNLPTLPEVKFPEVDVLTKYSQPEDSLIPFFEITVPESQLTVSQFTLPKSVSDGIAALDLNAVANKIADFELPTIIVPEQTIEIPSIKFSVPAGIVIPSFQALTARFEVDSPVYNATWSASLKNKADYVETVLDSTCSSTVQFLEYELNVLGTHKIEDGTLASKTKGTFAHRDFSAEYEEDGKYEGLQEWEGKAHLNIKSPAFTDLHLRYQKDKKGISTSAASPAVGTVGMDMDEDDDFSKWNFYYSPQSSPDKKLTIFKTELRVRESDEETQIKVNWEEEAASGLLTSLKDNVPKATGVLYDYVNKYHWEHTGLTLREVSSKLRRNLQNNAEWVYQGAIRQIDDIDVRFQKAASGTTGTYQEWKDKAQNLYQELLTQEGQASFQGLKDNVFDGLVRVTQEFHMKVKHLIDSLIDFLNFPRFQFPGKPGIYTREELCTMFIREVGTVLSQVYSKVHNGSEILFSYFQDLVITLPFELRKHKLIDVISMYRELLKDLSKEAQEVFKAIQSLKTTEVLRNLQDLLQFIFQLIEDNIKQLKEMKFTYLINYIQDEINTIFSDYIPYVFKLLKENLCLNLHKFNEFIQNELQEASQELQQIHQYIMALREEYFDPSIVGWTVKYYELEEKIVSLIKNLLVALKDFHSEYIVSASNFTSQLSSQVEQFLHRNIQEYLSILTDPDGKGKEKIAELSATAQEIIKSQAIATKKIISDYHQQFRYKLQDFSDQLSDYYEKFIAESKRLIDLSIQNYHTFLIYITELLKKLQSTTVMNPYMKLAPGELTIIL
T2 sequence (P04114 28-4563): as above

Molecule	Susceptibility of lipid-enriched LDL to aggregate during incubation with hrSMase, vs control LDL (LDL particles)	SMase-induced conformational changes in apoB-100 (apoB-100)	Aggregation of LDL (LDL)
CCCCCCCCCCCCCCCC(=O)OC[C@@H](O)COP(=O)([O-])OCC[N+](C)(C)C [LPC 16:0, 1-Palmitoyl-2-Hydroxy-sn-Glycero-3-Phosphocoline]	less susceptible		
CCCCCCCCCCCCC/C=C/[C@@H](O)[C@H](COP(=O)([O-])OCC[N+](C)(C)C)NC(=O)CCCCCCCCCCCCCCC [SM 18:1/16:0, N-Palmitoyl-D-erythro-sphingosylphosphorylcholine]	more susceptible	enhanced	
B1			caused aggregation
